Values quoted from earlier work as cited in publication PMC6500982 (Cancer Science, 2019).
Where two headings read alike, the source gives them in different places.

System: ABC DLBCL tumors
Conditions: cited from earlier work

Q: Which “Patients who responded to treatment” value (ABC tumors with B‐cell receptor mutations who also had MYD88 mutations) does the source give for `C=CC(=O)N1CCC[C@@H](n2nc(-c3ccc(Oc4ccccc4)cc3)c3c(N)ncnc32)C1` [ibrutinib] here?
A: 80%

Q: What about the “Patients who responded to treatment” value (ABC tumors with B‐cell receptor mutations) of the same compound?
A: 55.5%
